Assay results taken from patent publication US20230310428A1, “EGFR INHIBITOR AND PREPARATION METHOD AND USE THEREOF” (HONGYUN BIOTECH CO., LTD., priority 2020, published 2023).

Experiments:
Experiment in all cases: Growth inhibitory activity of compounds on BaF3 cell lines stably transfected with kinase (MTS, 48 h)
Format in all cases: cell-based
[1] = molecular target: T1, various mutants of kinase EGFR (BaF3 cell lines stably transfected with kinase) (Homo sapiens, UniProt P00533); conditions: BaF3 cell line stably transfected with EGFR Δ19Del, read-out: Δ19Del growth inhibitory activity IC50
T1 construct: other: BaF3 cells stably transfected with EGFR Δ19Del; MTS, 48 h; other: BaF3 cell line stably transfected with EGFR Δ19Del
T1 sequence (P00533 with tags, fused parts or gaps DEL746-750): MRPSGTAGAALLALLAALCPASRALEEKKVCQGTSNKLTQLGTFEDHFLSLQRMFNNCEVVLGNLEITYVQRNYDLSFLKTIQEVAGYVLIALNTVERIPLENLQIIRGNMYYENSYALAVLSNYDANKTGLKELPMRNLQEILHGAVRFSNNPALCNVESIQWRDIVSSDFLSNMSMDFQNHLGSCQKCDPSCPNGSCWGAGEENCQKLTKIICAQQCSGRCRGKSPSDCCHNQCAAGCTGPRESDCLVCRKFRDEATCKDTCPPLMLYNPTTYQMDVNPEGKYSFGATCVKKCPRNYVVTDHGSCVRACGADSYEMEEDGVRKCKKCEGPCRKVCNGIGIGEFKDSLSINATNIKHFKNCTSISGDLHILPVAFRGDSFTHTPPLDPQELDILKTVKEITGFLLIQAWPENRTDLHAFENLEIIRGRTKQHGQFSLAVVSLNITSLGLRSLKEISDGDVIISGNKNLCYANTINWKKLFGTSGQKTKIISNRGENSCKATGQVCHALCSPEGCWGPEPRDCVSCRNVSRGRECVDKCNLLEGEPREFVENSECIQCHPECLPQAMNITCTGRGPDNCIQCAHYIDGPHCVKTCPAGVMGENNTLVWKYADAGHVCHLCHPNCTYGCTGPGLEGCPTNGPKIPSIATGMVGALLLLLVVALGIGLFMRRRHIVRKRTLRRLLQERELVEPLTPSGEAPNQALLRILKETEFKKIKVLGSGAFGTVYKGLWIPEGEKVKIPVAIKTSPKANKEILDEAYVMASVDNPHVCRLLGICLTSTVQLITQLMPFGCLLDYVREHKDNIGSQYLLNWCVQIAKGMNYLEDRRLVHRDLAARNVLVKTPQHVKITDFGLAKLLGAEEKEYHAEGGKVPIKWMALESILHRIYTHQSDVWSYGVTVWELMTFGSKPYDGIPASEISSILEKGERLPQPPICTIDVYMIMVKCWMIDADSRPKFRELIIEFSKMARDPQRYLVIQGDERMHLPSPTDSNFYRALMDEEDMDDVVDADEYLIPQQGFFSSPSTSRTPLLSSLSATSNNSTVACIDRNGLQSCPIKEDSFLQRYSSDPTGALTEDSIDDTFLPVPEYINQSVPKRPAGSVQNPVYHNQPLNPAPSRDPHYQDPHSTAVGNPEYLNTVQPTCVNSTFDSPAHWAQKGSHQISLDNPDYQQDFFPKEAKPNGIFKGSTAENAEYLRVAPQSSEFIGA
How it was run: (§1)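 First, cells were seeded and treated with an eight-point threefold dilution series starting at 10 µM (0.1% DMSO). After 48 h at 37 °C, MTS reagent was added for 1-4 h before absorbance at 490 nm. Inhibition rates gave the IC50.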

[2] = molecular target: T2, various mutants of kinase EGFR (BaF3 cell lines stably transfected with kinase) (Homo sapiens, UniProt P00533, C797S/L858R/T790M); conditions: BaF3 cell line stably transfected with EGFR L858R/T790M/C797S, read-out: L858R/T790M/ C797S growth inhibitory activity IC50
T2 construct: expressed in transfected cells; host or cells: BaF3
T2 sequence (P00533 25-1210 T790M/C797S/L858R): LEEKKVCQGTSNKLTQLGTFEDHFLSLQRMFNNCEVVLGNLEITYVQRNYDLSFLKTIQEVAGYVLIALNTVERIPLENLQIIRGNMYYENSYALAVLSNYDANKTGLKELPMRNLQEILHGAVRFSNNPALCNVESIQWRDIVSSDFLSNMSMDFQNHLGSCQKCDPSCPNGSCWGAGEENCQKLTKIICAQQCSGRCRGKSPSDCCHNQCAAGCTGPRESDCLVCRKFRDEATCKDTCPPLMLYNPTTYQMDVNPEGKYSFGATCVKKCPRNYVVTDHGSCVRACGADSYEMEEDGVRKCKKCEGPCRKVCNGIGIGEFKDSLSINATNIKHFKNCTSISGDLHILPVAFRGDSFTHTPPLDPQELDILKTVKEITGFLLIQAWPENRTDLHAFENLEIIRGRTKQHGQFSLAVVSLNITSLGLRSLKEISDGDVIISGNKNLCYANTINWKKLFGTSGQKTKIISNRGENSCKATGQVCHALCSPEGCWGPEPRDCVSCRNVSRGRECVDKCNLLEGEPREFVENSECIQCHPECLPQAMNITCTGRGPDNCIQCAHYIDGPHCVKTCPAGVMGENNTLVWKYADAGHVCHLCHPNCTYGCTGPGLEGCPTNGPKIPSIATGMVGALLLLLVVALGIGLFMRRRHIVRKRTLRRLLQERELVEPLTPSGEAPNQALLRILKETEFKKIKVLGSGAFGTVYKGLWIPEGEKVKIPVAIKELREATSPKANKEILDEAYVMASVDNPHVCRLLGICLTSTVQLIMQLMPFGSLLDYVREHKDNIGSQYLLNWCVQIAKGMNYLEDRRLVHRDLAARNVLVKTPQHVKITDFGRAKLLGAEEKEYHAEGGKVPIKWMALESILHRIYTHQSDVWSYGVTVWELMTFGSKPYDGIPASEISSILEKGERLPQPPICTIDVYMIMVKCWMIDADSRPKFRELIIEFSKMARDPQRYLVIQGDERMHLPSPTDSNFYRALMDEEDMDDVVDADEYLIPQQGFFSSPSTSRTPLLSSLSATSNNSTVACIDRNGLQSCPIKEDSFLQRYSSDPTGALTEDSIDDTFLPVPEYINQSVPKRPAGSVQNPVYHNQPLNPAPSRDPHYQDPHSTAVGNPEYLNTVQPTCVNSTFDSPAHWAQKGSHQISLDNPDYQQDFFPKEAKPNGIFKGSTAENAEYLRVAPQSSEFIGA
How it was run: as §1

[3] = molecular target: T3, various mutants of kinase EGFR (BaF3 cell lines stably transfected with kinase) (Homo sapiens, UniProt P00533, L858R); conditions: BaF3 cell line stably transfected with EGFR L858R, read-out: L858R growth inhibitory activity IC50
T3 construct: expressed in transfected cells; host or cells: BaF3
How it was run: as §1

[4] = molecular target: T4, various mutants of kinase EGFR (BaF3 cell lines stably transfected with kinase) (Homo sapiens, UniProt P00533, L858R/T790M); conditions: BaF3 cell line stably transfected with EGFR L858R/T790M, read-out: L858R/ T790M growth inhibitory activity IC50
T4 construct: expressed in transfected cells; host or cells: BaF3
T4 sequence (P00533 25-1210 T790M/L858R): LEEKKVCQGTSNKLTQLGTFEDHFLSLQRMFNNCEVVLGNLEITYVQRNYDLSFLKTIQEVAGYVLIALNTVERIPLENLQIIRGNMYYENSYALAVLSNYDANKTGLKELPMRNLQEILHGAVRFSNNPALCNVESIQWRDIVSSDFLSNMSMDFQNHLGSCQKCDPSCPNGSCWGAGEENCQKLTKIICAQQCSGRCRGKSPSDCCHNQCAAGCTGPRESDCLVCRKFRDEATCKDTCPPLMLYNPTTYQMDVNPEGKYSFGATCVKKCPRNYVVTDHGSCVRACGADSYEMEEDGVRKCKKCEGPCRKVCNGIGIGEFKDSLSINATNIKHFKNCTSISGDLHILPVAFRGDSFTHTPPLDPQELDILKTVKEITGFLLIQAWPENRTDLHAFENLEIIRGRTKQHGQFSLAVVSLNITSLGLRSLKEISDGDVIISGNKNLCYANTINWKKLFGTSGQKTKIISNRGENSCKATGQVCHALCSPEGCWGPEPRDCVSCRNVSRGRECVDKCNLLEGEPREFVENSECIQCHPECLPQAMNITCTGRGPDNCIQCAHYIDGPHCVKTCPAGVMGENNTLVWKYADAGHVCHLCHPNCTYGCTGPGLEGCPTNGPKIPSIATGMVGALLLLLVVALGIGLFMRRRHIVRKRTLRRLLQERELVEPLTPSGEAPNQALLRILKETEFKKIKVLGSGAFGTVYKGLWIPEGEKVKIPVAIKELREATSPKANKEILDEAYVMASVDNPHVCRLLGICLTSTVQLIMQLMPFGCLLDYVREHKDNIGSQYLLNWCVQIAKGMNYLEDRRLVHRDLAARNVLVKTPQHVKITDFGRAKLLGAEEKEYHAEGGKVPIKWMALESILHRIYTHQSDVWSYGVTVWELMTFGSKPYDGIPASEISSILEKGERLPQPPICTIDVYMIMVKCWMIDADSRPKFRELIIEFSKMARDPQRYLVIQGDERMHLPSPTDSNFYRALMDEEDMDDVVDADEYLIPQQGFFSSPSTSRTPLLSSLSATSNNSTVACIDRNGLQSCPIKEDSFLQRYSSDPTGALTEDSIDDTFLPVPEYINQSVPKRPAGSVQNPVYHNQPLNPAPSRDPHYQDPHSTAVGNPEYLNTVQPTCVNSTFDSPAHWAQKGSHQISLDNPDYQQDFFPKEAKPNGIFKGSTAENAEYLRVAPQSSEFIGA
How it was run: as §1

[5] = molecular target: T5, various mutants of kinase EGFR (BaF3 cell lines stably transfected with kinase) (Homo sapiens, UniProt P00533, T790M/C797S, form not given); conditions: BaF3 cell line stably transfected with EGFR Δ19Del/T790M/C797S, read-out: Δ19Del/T790M/ C797S growth inhibitory activity IC50
T5 construct: other: BaF3 cells stably transfected with EGFR Δ19Del/T790M/C797S; MTS, 48; other: BaF3 cell line stably transfected with EGFR Δ19Del/T790M/C7
How it was run: as §1

[6] = molecular target: T6, various mutants of kinase EGFR (BaF3 cell lines stably transfected with kinase) (Homo sapiens, UniProt P00533, T790M, form not given); conditions: BaF3 cell line stably transfected with EGFR Δ19Del/T790M, read-out: Δ19Del/ T790M growth inhibitory activity IC50
T6 construct: other: BaF3 cells stably transfected with EGFR Δ19Del/T790M; MTS, 48 h; other: BaF3 cell line stably transfected with EGFR Δ19Del/T790M; MTS, 48
T6 sequence (P00533 with tags, fused parts or gaps DEL746-750/T790M, form open): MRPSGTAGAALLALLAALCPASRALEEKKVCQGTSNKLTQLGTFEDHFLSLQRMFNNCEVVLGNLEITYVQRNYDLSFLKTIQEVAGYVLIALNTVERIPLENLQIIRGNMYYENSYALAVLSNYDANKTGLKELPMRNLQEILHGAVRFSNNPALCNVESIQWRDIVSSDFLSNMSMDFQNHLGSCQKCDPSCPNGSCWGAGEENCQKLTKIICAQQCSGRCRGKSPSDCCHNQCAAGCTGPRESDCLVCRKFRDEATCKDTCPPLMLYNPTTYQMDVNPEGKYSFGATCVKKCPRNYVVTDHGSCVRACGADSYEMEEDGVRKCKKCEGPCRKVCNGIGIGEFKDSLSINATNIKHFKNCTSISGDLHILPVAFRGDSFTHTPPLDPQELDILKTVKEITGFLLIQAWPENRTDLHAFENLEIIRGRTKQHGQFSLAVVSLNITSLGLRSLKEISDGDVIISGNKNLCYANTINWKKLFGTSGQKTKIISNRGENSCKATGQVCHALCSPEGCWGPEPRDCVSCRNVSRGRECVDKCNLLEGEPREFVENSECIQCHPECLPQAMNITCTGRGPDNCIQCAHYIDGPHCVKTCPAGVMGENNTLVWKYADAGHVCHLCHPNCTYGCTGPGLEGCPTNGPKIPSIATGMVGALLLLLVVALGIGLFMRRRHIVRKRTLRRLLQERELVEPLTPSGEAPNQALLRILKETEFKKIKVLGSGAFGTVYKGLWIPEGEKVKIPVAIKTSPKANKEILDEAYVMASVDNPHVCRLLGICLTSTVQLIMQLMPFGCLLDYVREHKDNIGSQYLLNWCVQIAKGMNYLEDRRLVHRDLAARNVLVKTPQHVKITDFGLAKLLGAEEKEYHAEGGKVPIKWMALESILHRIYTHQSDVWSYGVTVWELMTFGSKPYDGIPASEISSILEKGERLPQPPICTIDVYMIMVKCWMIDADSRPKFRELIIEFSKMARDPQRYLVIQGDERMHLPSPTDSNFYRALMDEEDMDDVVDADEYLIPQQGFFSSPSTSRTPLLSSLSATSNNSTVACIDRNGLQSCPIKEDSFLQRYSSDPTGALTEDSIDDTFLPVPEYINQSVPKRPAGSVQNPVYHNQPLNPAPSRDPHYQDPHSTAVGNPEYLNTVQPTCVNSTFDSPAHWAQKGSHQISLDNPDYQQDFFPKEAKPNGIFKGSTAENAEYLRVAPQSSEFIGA
How it was run: as §1

| IC50 [1] [nM] | IC50 [2] [nM] | IC50 [3] [nM] | IC50 [4] [nM] | IC50 [5] [nM] | IC50 [6] [nM] | Compound |
| --- | --- | --- | --- | --- | --- | --- |
| 50 to 500 | 50 to 500 | 50 to 500 | ≤ 50 | ≤ 50 | ≤ 50 | COc1cc(N2CCC(N3CCN(C)CC3)CC2)c(CC2CC2)cc1Nc1ncc(Br)c(Nc2ccc3nccnc3c2N(C2CC2)S(C)(=O)=O)n1 [Compound I-308] |
| 50 to 500 | ≤ 50 | ≤ 50 | ≤ 50 | ≤ 50 | ≤ 50 | COc1cc(N2CCN(C)CC2)c(C)cc1Nc1ncc(Br)c(Nc2ccc3nccnc3c2N(C2CC2)S(C)(=O)=O)n1 [Compound I-309] |
| 50 to 500 | ≤ 50 | ≤ 50 | ≤ 50 | ≤ 50 | ≤ 50 | CCc1cc(Nc2ncc(Br)c(Nc3ccc4nccnc4c3N(C3CC3)S(C)(=O)=O)n2)c(OC)cc1N1CCN(C)CC1 [Compound I-310] |
| 50 to 500 | ≤ 50 | 50 to 500 | ≤ 50 | ≤ 50 | ≤ 50 | COc1cc(N2CCC(N(C)C)CC2)c(C)cc1Nc1ncc(Br)c(Nc2ccc3nccnc3c2N(C2CC2)S(C)(=O)=O)n1 [Compound I-311] |
| 50 to 500 | ≤ 50 | 50 to 500 | ≤ 50 | ≤ 50 | ≤ 50 | COc1cc(N2CCC(N(C)C)C2)c(C)cc1Nc1ncc(Br)c(Nc2ccc3nccnc3c2N(C2CC2)S(C)(=O)=O)n1 (stereo not drawn) [Compound I-312] |
| 50 to 500 | 50 to 500 | 50 to 500 | 50 to 500 | ≤ 50 | 50 to 500 | COc1cc(N2CCC(N3CCN(C)CC3)CC2)ccc1Nc1ncc(C)c(Nc2ccc3nccnc3c2N(C)S(C)(=O)=O)n1 [Compound I-313] |
| 50 to 500 | ≤ 50 | 50 to 500 | ≤ 50 | ≤ 50 | ≤ 50 | CCc1cc(Nc2ncc(C)c(Nc3ccc4nccnc4c3N(C)S(C)(=O)=O)n2)c(OC(F)(F)F)cc1N1CCC(N2CCN(C)CC2)CC1 [Compound I-314] |
| ≤ 50 | ≤ 50 | ≤ 50 | ≤ 50 | ≤ 50 | ≤ 50 | CCc1cc(Nc2ncc(C)c(Nc3ccc4nccnc4c3N(C)S(C)(=O)=O)n2)c(OC)cc1N1CCN(C)CC1 [Compound I-315] |
| 50 to 500 | 50 to 500 | 50 to 500 | 50 to 500 | ≤ 50 | 50 to 500 | CCc1cnc(Nc2ccc(N3CCC(N4CCN(C)CC4)CC3)cc2OC)nc1Nc1ccc2nccnc2c1N(C)S(C)(=O)=O [Compound I-316] |
| ≤ 50 | ≤ 50 | ≤ 50 | ≤ 50 | ≤ 50 | ≤ 50 | CCc1cnc(Nc2cc(C)c(N3CCC(N4CCN(C)CC4)CC3)cc2OC)nc1Nc1ccc2nccnc2c1N(C)S(C)(=O)=O [Compound I-317] |
| ≤ 50 | ≤ 50 | ≤ 50 | ≤ 50 | ≤ 50 | ≤ 50 | CCc1cc(Nc2ncc(CC)c(Nc3ccc4nccnc4c3N(C)S(C)(=O)=O)n2)c(OC)cc1N1CCC(N2CCN(C)CC2)CC1 [Compound I-318] |
| ≤ 50 | ≤ 50 | ≤ 50 | ≤ 50 | ≤ 50 | ≤ 50 | CCc1cc(Nc2ncc(CC)c(Nc3ccc4nccnc4c3N(C)S(C)(=O)=O)n2)ccc1N1CCC(N2CCN(C)CC2)CC1 [Compound I-319] |
| ≤ 50 | ≤ 50 | ≤ 50 | ≤ 50 | ≤ 50 | ≤ 50 | CCc1cnc(Nc2cc(CC)c(N3CCC(N4CCN(C)CC4)CC3)nc2OC)nc1Nc1ccc2nccnc2c1N(C)S(C)(=O)=O [Compound I-320] |
